Data taken from PubChem BioAssay (NCI).
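Tested at 5 concentrations; 48 h exposure; 96-well plates; endpoints linearly interpolated, else capped at highest concentration. Here, GI50 denotes the concentration required for 50% inhibition of growth. The concentration for full growth arrest is given as TGI.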

Columns and labels:
Experiment in all cases: growth of human tumour cells (NCI), 48 h
HCT-15 colon = system: HCT-15 colon
A549 NSCLC = system: A549 NSCLC
HOP-62 NSCLC = system: HOP-62 NSCLC
RXF 393 renal = system: RXF 393 renal
CCRF-CEM leukemia = system: CCRF-CEM leukemia
HOP-92 NSCLC = system: HOP-92 NSCLC
SF-268 CNS = system: SF-268 CNS
ACHN renal = system: ACHN renal
SK-MEL-2 melanoma = system: SK-MEL-2 melanoma
BT-549 breast = system: BT-549 breast

SMILES: CN(CCN1C(=O)c2cc([N+](=O)[O-])cc3cc([N+](=O)[O-])cc(c23)C1=O)CCN1C(=O)c2cc([N+](=O)[O-])cc3cc([N+](=O)[O-])cc(c23)C1=O
- TGI (HCT-15 colon): 8.65 µM
- TGI (A549 NSCLC): > 100 µM
- TGI (HOP-62 NSCLC): > 100 µM
- TGI (RXF 393 renal): 1.04 µM
- TGI (CCRF-CEM leukemia): 4.03 µM
- TGI (HOP-92 NSCLC): 2.2 µM
- TGI (SF-268 CNS): > 100 µM
- TGI (ACHN renal): > 100 µM
- TGI (SK-MEL-2 melanoma): 5.21 µM

SMILES: O=S(=O)(NCCCNc1nccc(-c2c(-c3ccc(O)cc3)nc3sccn23)n1)c1ccc(F)cc1
- GI50 (HCT-15 colon): 2.61 µM
- TGI (HCT-15 colon): 10 µM
- GI50 (A549 NSCLC): 2.64 µM
- TGI (A549 NSCLC): 20.3 µM
- GI50 (HOP-62 NSCLC): 3.67 µM
- TGI (HOP-62 NSCLC): 14.9 µM
- GI50 (RXF 393 renal): 2.74 µM
- TGI (RXF 393 renal): > 100 µM
- GI50 (BT-549 breast): 2.36 µM
- TGI (BT-549 breast): 10.4 µM
- GI50 (HOP-92 NSCLC): 2.65 µM
- TGI (HOP-92 NSCLC): 8.56 µM
- GI50 (SF-268 CNS): 2.94 µM
- TGI (SF-268 CNS): 14.7 µM
- GI50 (ACHN renal): 2.09 µM
- TGI (ACHN renal): > 100 µM
- GI50 (SK-MEL-2 melanoma): 1.18 µM
- TGI (SK-MEL-2 melanoma): 2.81 µM

SMILES: O=C(N/C(=C\c1ccc(Cl)cc1)c1nc2ccccc2[nH]1)c1ccccc1
- TGI (HCT-15 colon): > 100 µM
- TGI (A549 NSCLC): 56.1 µM
- TGI (RXF 393 renal): 42.7 µM
- TGI (CCRF-CEM leukemia): 57.3 µM
- TGI (HOP-92 NSCLC): 33.6 µM
- TGI (SF-268 CNS): 38.5 µM
- TGI (ACHN renal): 80.5 µM
- TGI (SK-MEL-2 melanoma): 42.2 µM

SMILES: COC(=O)CCC(NC(=S)N/N=C(\C)c1cnc2ccccc2n1)C(=O)OC (configuration not stated)
- TGI (HCT-15 colon): > 100 µM
- TGI (A549 NSCLC): > 100 µM
- TGI (HOP-62 NSCLC): > 100 µM
- TGI (RXF 393 renal): 86 µM
- TGI (CCRF-CEM leukemia): 15.7 µM
- TGI (SF-268 CNS): > 100 µM
- TGI (ACHN renal): 89.2 µM
- TGI (SK-MEL-2 melanoma): > 100 µM

SMILES: COc1ccc(C2=C(Cl)c3cc(OC)c(OC)cc3C2OC)cc1OC (configuration not stated)
- TGI (HCT-15 colon): > 100 µM
- TGI (A549 NSCLC): > 100 µM
- TGI (HOP-62 NSCLC): > 100 µM
- TGI (RXF 393 renal): > 100 µM
- TGI (CCRF-CEM leukemia): > 100 µM
- TGI (HOP-92 NSCLC): > 100 µM
- TGI (SF-268 CNS): > 100 µM
- TGI (ACHN renal): > 100 µM
- TGI (SK-MEL-2 melanoma): > 100 µM

SMILES: Cn1c2c(c3ccccc31)CCN(CCCCN1CCCCC1)C2=O
- TGI (HCT-15 colon): > 100 µM
- TGI (A549 NSCLC): > 100 µM
- TGI (HOP-62 NSCLC): > 100 µM
- TGI (RXF 393 renal): > 100 µM
- TGI (CCRF-CEM leukemia): > 100 µM
- TGI (HOP-92 NSCLC): > 100 µM
- TGI (SF-268 CNS): > 100 µM
- TGI (ACHN renal): > 100 µM
- TGI (SK-MEL-2 melanoma): > 100 µM

SMILES: CC(=O)OCC1OC(n2cc(F)c(=O)[nH]c2=O)C(NC(=O)N(CCCl)N=O)C(OC(C)=O)C1OC(C)=O (configuration not stated)
- TGI (A549 NSCLC): > 100 µM
- TGI (HOP-62 NSCLC): > 100 µM
- TGI (CCRF-CEM leukemia): > 100 µM
- TGI (HOP-92 NSCLC): > 100 µM
- TGI (SF-268 CNS): > 100 µM
- TGI (ACHN renal): > 100 µM

SMILES: COc1ccc(NC(=O)C(=O)c2c(O)c3ccc(O)cc3oc2=O)c([N+](=O)[O-])c1
- TGI (HCT-15 colon): > 100 µM
- TGI (A549 NSCLC): > 100 µM
- TGI (RXF 393 renal): > 100 µM
- TGI (CCRF-CEM leukemia): > 100 µM
- TGI (HOP-92 NSCLC): > 100 µM
- TGI (SF-268 CNS): > 100 µM
- TGI (ACHN renal): > 100 µM
- TGI (SK-MEL-2 melanoma): > 100 µM

SMILES: CCC(C)CCOC(=O)c1ccc(N=Cc2ccc(C=Nc3ccc(C(=O)OCCC(C)CC)cc3)cc2)cc1 (configuration not stated)
- TGI (HCT-15 colon): > 100 µM
- TGI (A549 NSCLC): > 100 µM
- TGI (HOP-62 NSCLC): > 100 µM
- TGI (RXF 393 renal): > 100 µM
- TGI (CCRF-CEM leukemia): > 100 µM
- TGI (HOP-92 NSCLC): > 100 µM
- TGI (SF-268 CNS): > 100 µM
- TGI (ACHN renal): > 100 µM
- TGI (SK-MEL-2 melanoma): > 100 µM

SMILES: COc1cc(C2Cc3ncccc3-c3[nH]c(=O)c4cccnc4c32)cc(OC)c1OC (configuration not stated)
- GI50 (HCT-15 colon): 0.809 µM
- TGI (HCT-15 colon): > 100 µM
- GI50 (A549 NSCLC): 0.825 µM
- TGI (A549 NSCLC): > 100 µM
- GI50 (HOP-62 NSCLC): 0.396 µM
- TGI (HOP-62 NSCLC): > 87.4 µM
- GI50 (RXF 393 renal): 0.289 µM
- TGI (RXF 393 renal): 2.01 µM
- GI50 (CCRF-CEM leukemia): 0.467 µM
- TGI (CCRF-CEM leukemia): > 100 µM
- GI50 (BT-549 breast): 0.633 µM
- TGI (BT-549 breast): 66.6 µM
- GI50 (SF-268 CNS): 0.67 µM
- TGI (SF-268 CNS): > 100 µM
- GI50 (ACHN renal): 0.669 µM
- TGI (ACHN renal): > 100 µM
- GI50 (SK-MEL-2 melanoma): 0.485 µM
- TGI (SK-MEL-2 melanoma): > 100 µM
